Experimental findings from US9790252B2, “2-fluorinated riboses and arabinoses and methods of use and synthesis” (CORNELL UNIVERSITY, priority 2009, dated 2017) are described below.

In one data set the test system is HEK293 cells. Put plainly: Toxicity to HEK293 cells (MTT). The conditions noted are these: for 100 μM absorbance / 100 μM relative viability: HEK293, 100 μM; for 100 μM absorbance / 100 μM relative viability / 500 μM absorbance / 500 μM relative viability: 12 hours; for 100 μM absorbance / 500 μM absorbance: 570 nm; for 100 μM relative viability / 500 μM relative viability: control = 1; for 500 μM absorbance / 500 μM relative viability: HEK293, 500 μM; for EC50: HEK293, 2′-deoxy-2′-fluoro-nucleosides and nucleotides. The data set is classed as cell-based. On the procedure:
1. HEK293 cells were seeded in 96-well plate at a density of 25,000 cells/well the day before the experiment starts;
2. After the cells reach 50˜60% confluency, media was taken out, and 100 μL of fresh media was added to each well;
3. F-derivatives were plated at 100 and 500 μM (in duplicates) concentrations;
4. After 12 hours' incubation at 37° C., the media was taken out, 100 μL of fresh media was added to each well along with 20 μL of 5 mg/mL of MTT solution (in PBS);
5. After 1.5 hours' incubation at 37° C., media was taken out and 100 μL of DMSO was added to each well, the plate was mixed on shaker for 5 mins;
(§1) Absorbance was measured at 570 nm.
(§2) Assay for Determining Toxicity to HEK293 and Neuro2A Cells • 1. HEK293 and Neuro2A cells were seeded in 96-well plate at a density of 25,000 cells/well the day before the experiment starts; • 2. After the cells reach 50˜60% confluency, media was taken out, and 100 μL of fresh media was added to each well; • 3. Cl-derivatives were plated at 100 and 500 μM (in duplicates) concentrations; • 4. After 12 hours' incubation at 37° C., the media was taken out, 100 μL of fresh media was added to each well along with 20 μL of 5 mg/mL of MTT solution (in PBS); • 5. After 2 hours' incubation at 37° C., media was taken out and 100 μL of DMSO was added to each well, the plate was mixed on shaker for 5 mins; • 6. Absorbance was measured at 570 nm.

The next data set concerns Neuro2A cells. Put plainly: Toxicity to Neuro2A cells (MTT). The data set is classed as cell-based. Particulars: for 100 μM absorbance / 100 μM relative viability / 500 μM absorbance / 500 μM relative viability: 12 hours; for 100 μM absorbance / 500 μM absorbance: 570 nm; for EC50: 2′-deoxy-2′-fluoro-nucleosides and nucleotides. On the procedure:
6. Neuro2A cells were seeded in 96-well plate at a density of 25,000 cells/well the day before the experiment starts;
7. After the cells reach 50˜60% confluency, media was taken out, and 100 μL of fresh media was added to each well;
8. […]
9. After 12 hours' incubation at 37° C., the media was taken out, 100 μL of fresh media was added to each well along with 20 μL of 5 mg/mL of MTT solution (in PBS);
10. After 1.5 hours' incubation at 37° C., media was taken out and 100 μL of DMSO was added to each well, the plate was mixed on shaker for 5 mins;
as §1
as §2, with “Cl-derivatives were plated at 100 and 500 μM (in duplicates) concentrations; • 4.” left out

A further data set deals with T1, SirT3 (Homo sapiens, UniProt Q9NTG7).
T1 sequence (Q9NTG7 1-399): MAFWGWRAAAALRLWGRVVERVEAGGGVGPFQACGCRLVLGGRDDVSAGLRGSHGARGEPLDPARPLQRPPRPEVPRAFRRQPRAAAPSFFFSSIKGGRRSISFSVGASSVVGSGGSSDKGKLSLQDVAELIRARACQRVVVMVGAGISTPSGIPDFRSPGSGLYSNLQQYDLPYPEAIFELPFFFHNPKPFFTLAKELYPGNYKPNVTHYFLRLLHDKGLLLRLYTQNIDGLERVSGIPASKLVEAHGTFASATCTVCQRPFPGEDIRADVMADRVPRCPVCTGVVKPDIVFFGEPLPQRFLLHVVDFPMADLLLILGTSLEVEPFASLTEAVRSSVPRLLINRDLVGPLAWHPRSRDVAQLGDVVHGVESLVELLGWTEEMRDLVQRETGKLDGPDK
Put plainly: SirT3 activity assay (HPLC of 2′- and 3′-AADPR). It is filed as biochemical. On the procedure:
Reactions containing 800 μM NAD^+, 500 μM H3 peptide, and 100 mM phosphate buffer at pH 7.5, with varying concentrations of 2′-deoxy-2′-fluoro-nucleosides or nucleotides were initiated by addition of SirT3 enzyme to a concentration of 13.9 μM. Reactions were incubated for 2 hours at 37° C. and quenched by addition of trifluoroacetic acid to pH 2. After centrifugation to remove precipitates, reactions were injected on HPLC for activity analysis. Production of 2′- and 3′-AADPR were analyzed at 260 nm.
SirT3 Activity Assay: Reactions containing 800 μM NAD^+, 500 μM H3 peptide, and 100 mM phosphate buffer at pH 7.5, with varying concentrations of 2′-deoxy-2′-chloro-nucleosides were initiated by addition of SirT3 enzyme to a concentration of 13.9 μM. Reactions were incubated for 2 hours at 37° C. and quenched by addition of trifluoroacetic acid to pH 2. After centrifugation to remove precipitates, reactions were injected on HPLC for activity analysis. Production of 2′- and 3′-AADPR were analyzed at 260 nm.

The target of a further data set is T2, SirT2 (Homo sapiens, UniProt Q8IXJ6).
T2 sequence (Q8IXJ6 1-389): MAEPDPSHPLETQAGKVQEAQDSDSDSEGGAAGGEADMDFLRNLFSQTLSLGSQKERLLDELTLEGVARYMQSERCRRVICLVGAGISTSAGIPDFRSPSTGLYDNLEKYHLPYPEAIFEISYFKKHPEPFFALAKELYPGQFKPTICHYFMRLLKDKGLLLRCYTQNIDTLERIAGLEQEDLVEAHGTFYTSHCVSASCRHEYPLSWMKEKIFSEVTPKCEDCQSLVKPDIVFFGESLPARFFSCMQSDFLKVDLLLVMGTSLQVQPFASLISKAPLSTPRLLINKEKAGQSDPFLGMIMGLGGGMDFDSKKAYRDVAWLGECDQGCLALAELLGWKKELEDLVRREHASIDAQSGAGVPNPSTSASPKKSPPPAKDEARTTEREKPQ
The data set is described as follows: SirT2 activity assay (HPLC of 2′- and 3′-AADPR). The data set is classed as biochemical. The conditions noted are these: at 1 mM; read-out: SirT2 % inhibited. On the procedure: Reactions containing 800 μM NAD^+, 500 μM H3 peptide, and 100 mM phosphate buffer at pH 7.5, with varying concentrations of 2′-deoxy-2′-fluoro-nucleosides or nucleotides were initiated by addition of SirT2 enzyme to a concentration of 16.6 μM. Reactions were incubated for 45 mins at 37° C. and quenched by addition of trifluoroacetic acid to pH 2. After centrifugation to remove precipitates, reactions were injected on HPLC for activity analysis. Production of 2′- and 3′-AADPR were analyzed at 260 nm.
SirT2 Activity Assay: Reactions containing 800 μM NAD^+, 500 μM H3 peptide, and 100 mM phosphate buffer at pH 7.5, with varying concentrations of 2′-deoxy-2′-chloro-nucleosides were initiated by addition of SirT2 enzyme to a concentration of 16.6 μM. Reactions were incubated for 45 mins at 37° C. and quenched by addition of trifluoroacetic acid to pH 2. After centrifugation to remove precipitates, reactions were injected on HPLC for activity analysis. Production of 2′- and 3′-AADPR were analyzed at 260 nm.

Where [1] appears, read: MTT 2 hours, chloro-nucleosides.
[2] abbreviates: control = 1, chloro-nucleosides.

The EC50 is the concentration at which the effect is half-maximal. A high value points to a need for much substance. As a reminder, the Ki is a measure of affinity in units of concentration, obtained from inhibition or displacement.

Take “2′-deoxy-2′-fluoro-ribo-NAD^+ [ribo-F-NAD]”: in the data set on HEK293 cells (MTT 1.5 hours), the “100 μM absorbance” value is reported as 1.4985 and the “500 μM absorbance” value came to 1.384. Moreover, in the data set on HEK293 cells, the “100 μM relative viability” value is reported as 0.6592, the “500 μM relative viability” value turned out to be 0.6087 and the EC50 was found to be 1020 µM. Moreover, in the data set on Neuro2A cells (MTT 1.5 hours), the “100 μM absorbance” value is on record as 1.6122 and the “500 μM absorbance” value is given as 0.6455. In addition, in the data set on Neuro2A cells (control = 1), the “100 μM relative viability” value amounted to 0.663 and the “500 μM relative viability” value stood at 0.265. Also, the EC50 with Neuro2A cells amounted to 350 µM.

Take `NC(=O)c1ccc[n+]([C@@H]2O[C@H](COP(=O)([O-])OP(=O)(O)OC[C@H]3O[C@@H](n4cnc5c(N)ncnc54)[C@H](O)[C@@H]3O)[C@@H](O)[C@@H]2F)c1` [ara-F-NAD, 2′-deoxy-2′-fluoro-arabino-NAD^+]: in the data set with HEK293 cells (MTT 1.5 hours), the “100 μM absorbance” value was found to be 1.523 and the “500 μM absorbance” value is recorded as 1.302. For the same compound, in the data set with HEK293 cells, the “100 μM relative viability” value is 0.6699, the “500 μM relative viability” value stood at 0.5729 and the EC50 is 1000 µM. For the same compound, in the data set with Neuro2A cells (MTT 1.5 hours), the “100 μM absorbance” value was found to be 2.2482 and the “500 μM absorbance” value amounted to 1.7012. Further, in the data set on Neuro2A cells (control = 1), the “100 μM relative viability” value is recorded as 0.924 and the “500 μM relative viability” value was 0.699. The compound also had an EC50 in the data set on Neuro2A cells of 1500 µM.

Consider `NC(=O)c1ccc[n+]([C@H]2O[C@H](CO)C(O)C2Cl)c1` (stereo partly drawn) [α-ara-Cl-NR, 1-(2′-deoxy-2′-chloro-arabinofuranosyl)-nicotinamide], for which, in the data set with HEK293 cells (setting [1]), the “100 μM absorbance” value came out at 2.09 and the “500 μM absorbance” value was 1.77. Besides, in the data set on HEK293 cells (chloro-nucleosides), the “100 μM relative viability” value was 0.8601 and the “500 μM relative viability” value stood at 0.7284. For the same compound, the “kills % of HEK293 cells” value in the data set on HEK293 cells (HEK293, at 500 μM) was “kills 30% at 500 μM”. In addition, in the data set on Neuro2A cells (setting [1]), the “100 μM absorbance” value is on record as 2.575 and the “500 μM absorbance” value is given as 2.34. Besides, in the data set on Neuro2A cells (setting [2]), the “100 μM relative viability” value is 1.089 and the “500 μM relative viability” value worked out at 0.9894. Besides, the “toxicity to Neuro2A (in words)” value in the data set on Neuro2A cells (at 500 μM) is reported as “not toxic at 500 μM”.

With `NC(=O)c1ccc[n+]([C@H]2O[C@H](CO)C(O)[C@@H]2Cl)c1` (stereo partly drawn) [α-ribo-Cl-NR, 1-(2-deoxy-2-chloro-D-ribofuranosyl)-nicotinamide], the inhibition at 1000 µM on SirT3 (at 1 mM, read-out: SirT3 % inhibited) was 86%; at SirT2, 50%.

`NC(=O)c1ccc[n+]([C@@H]2O[C@H](CO)C(O)[C@@H]2Cl)c1` (stereo partly drawn) [β-ribo-Cl-NR, 1-(2-deoxy-2-chloro-D-ribofuranosyl)-nicotinamide] yielded a Ki on SirT3 (800 μM NAD+, 500 μM H3 peptide, pH 7.5, 2 hours at 37° C.) of 82 µM. The inhibition at 1000 µM at SirT2 is 43%.
